Source: paper PMC4578888, “The Validation of Nematode-Specific Acetylcholine-Gated Chloride Channels as Potential Anthelmintic Drug Targets” (PLoS ONE, 2015)

Target: T1, AVR-15 (glutamate-gated chloride channel subunit) (Caenorhabditis elegans, UniProt O17548)
T1 construct: homomeric AVR-15, untagged and with a fluorescent protein tag in the intracellular loop, expressed in Xenopus laevis oocytes
T1 sequence (O17548 21-478): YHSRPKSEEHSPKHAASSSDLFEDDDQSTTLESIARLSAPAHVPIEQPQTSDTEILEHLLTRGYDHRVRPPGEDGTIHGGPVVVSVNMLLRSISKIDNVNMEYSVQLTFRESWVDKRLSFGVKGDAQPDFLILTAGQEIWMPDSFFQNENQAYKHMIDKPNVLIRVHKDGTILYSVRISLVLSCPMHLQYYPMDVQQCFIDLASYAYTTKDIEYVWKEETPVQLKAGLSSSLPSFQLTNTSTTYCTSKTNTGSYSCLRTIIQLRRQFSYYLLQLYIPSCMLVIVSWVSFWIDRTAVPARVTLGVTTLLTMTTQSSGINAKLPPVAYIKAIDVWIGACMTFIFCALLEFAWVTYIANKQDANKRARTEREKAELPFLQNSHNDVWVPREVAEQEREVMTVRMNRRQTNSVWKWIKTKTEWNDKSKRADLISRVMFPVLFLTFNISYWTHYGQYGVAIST
Assay: two-electrode voltage clamp in Xenopus oocytes, dose–response curve
Assay type: cell-based

SMILES: N[C@@H](CCC(=O)O)C(=O)O [glutamate]
- two-electrode voltage clamp in Xenopus oocytes, dose-response curve: Dose–response curve with the normalized maximal response on the y-axis plotted against the glutamate concentration
